# Data: EP4211126B1, “PHOTOCHEMICAL SYNTHESIS OF LOW PARTICLE SIZE MONODISPERSE GOLD NANOPARTICLES, LOADING WITH CANCER DRUG, AND DETERMINATION OF CYTOTOXIC ACTIVITY OF THE SAME” (Yildiz Teknik Universitesi, priority 2020, dated 2022)
# System: acute promyelocytic leukemia (HL-60) cells
# Assay: MTT colorimetric cytotoxicity test
# Format: cell-based
# Conditions: 72 hours of incubation, compared with DOXO in free form
# Experimental: MTT (3- (4,5-dimethylthiazol-2-yl) -2,5-diphenyl-2H-tetrazolium bromide) colorimetric test allows the quantitation of living cells whose mitochondrial activity is maintained in the culture medium. […] P<0.05 was considered significant.
# According to MTT experiments, after 72 hours of incubation, the effect of DOXO in free form, i.e., not loaded on AuNps, as well as the DOXO-loaded AuNps was investigated for acute promyelocytic leukemia (HL-60) and chronic myeloid leukemia (K562) cells, and the results are given in Figure 5 and Figure 6, respectively.
compound,measurement,value
"COc1cccc2c1C(=O)c1c(O)c3c(c(O)c1C2=O)C[C@@](O)(C(=O)CO)C[C@@H]3O[C@H]1C[C@H](N)[C@H](O)[C@H](C)O1 [DOXO, Doxorubicin]",cytotoxic effect (cell viability),should be used in higher amounts in order to have a similar cytotoxic effect
